From the OligoGym collection
Values joined by “and” are separate entries in the source; they are usually repeats but may differ in a detail not shown here. Equal values may be shown once. After the bases stand the sugars from the 5' end (letter, count) and the backbone: PS all phosphorothioate, else s phosphorothioate and o phosphodiester by linkage. Methylation of C is not given here. k = constrained ethyl (cEt); d = 2'-deoxy (DNA)

Target: MALAT1
Conditions: ASO, A431, 0.005 µM

Sequence	target mRNA inhibition
GGAATACTCTTCCAAG (sugars k3 d10 k3, PS)	6%
TGGGAGTTACTTGCCA (sugars k3 d10 k3, PS)	19%
TCTGGAAAAGCTAGGG (sugars k3 d10 k3, PS)	-21%
GTTACATGTTCCCACC (sugars k3 d10 k3, PS)	37%
CTAGGGAAAAGTGGTT (sugars k3 d10 k3, PS)	-22%
TTTGAAGCATACCTTA (sugars k3 d10 k3, PS)	-1%
CCCAAAAGCCCTCTCA (sugars k3 d10 k3, PS)	12%
CCCCAGTCCTTTACAG (sugars k3 d10 k3, PS)	9%
GTGTAAAACATTGCCT (sugars k3 d10 k3, PS)	0%
CTACATTTACAAAACG (sugars k3 d10 k3, PS)	29%
GCCTTGCAGGGACGGT (sugars k3 d10 k3, PS)	-10%
ATCCCCCCCAAGATTG (sugars k3 d10 k3, PS)	5%
TCCGCCGCCTCTTAAA (sugars k3 d10 k3, PS)	26%
CAGCACGGGCTGTCTG (sugars k3 d10 k3, PS)	-33%
ACTATATTTAAGGCCT (sugars k3 d10 k3, PS)	40%
CATGTGCCTGGAATTA (sugars k3 d10 k3, PS)	26%
TAGTGGTTCCCAATCC (sugars k3 d10 k3, PS)	14%
TAACGAAGAGATACCT (sugars k3 d10 k3, PS)	22%
TGGTTAGGTATGAGCT (sugars k3 d10 k3, PS)	4%
AGCTTGACAAGCAATT (sugars k3 d10 k3, PS)	16%
GTCCCATAACTGATCT (sugars k3 d10 k3, PS)	35%
TATGGAACTTGAATGC (sugars k3 d10 k3, PS)	24%
GGAGATCAGCTTCCGC (sugars k3 d10 k3, PS)	-7%

Sequence	target mRNA inhibition
GATTAGTAGTCAAAGC (sugars k3 d10 k3, PS)	24%
GAAGAATACCATCTGA (sugars k3 d10 k3, PS)	5%
GCATTCCCACCCAAAA (sugars k3 d10 k3, PS)	34%
CAAGGCAAATCGCCAT (sugars k3 d10 k3, PS)	42%
CTCTAAGAGACATTCA (sugars k3 d10 k3, PS)	23%
TCTGATCATAATCTCC (sugars k3 d10 k3, PS)	39%
ATTCCCCAATGGAGGT (sugars k3 d10 k3, PS)	36%
AGCGGTACACTCCTTC (sugars k3 d10 k3, PS)	50% and 43%
GACCCTACTGAAGAGC (sugars k3 d10 k3, PS)	32%
TGTCAATAGTACTATA (sugars k3 d10 k3, PS)	18%
GTTATGCCTGGTTAGG (sugars k3 d10 k3, PS)	16%
CCCACCCTCTAAGAGA (sugars k3 d10 k3, PS)	-4%
TTCAAGCATTCCTTCG (sugars k3 d10 k3, PS)	62%
CAATCACAAATACGAC (sugars k3 d10 k3, PS)	18%
TAAGACCATCCCAAAA (sugars k3 d10 k3, PS)	16%
TCATATTTTAAACGGG (sugars k3 d10 k3, PS)	23%
TCCGCTAAGATGCTAG (sugars k3 d10 k3, PS)	15%
CTGCCAACTAATTGCC (sugars k3 d10 k3, PS)	-32%
CAAATCGCCATGGAAA (sugars k3 d10 k3, PS)	14%
ACCCACCAAAGACCTC (sugars k3 d10 k3, PS)	9%
AATCACAAATACGACT (sugars k3 d10 k3, PS)	23%
GATCACTTTAGAGGCT (sugars k3 d10 k3, PS)	-8%
CAAAGACCTCGACACC (sugars k3 d10 k3, PS)	18%

Sequence	target mRNA inhibition
CAAGACCAAACTGCAG (sugars k3 d10 k3, PS)	-28%
TACTCTGATCATAATC (sugars k3 d10 k3, PS)	17%
TACTTTCCATTACGCA (sugars k3 d10 k3, PS)	16%
GTAAGCCCCACCCCCT (sugars k3 d10 k3, PS)	-35%
CGCACGGAAATTTTTC (sugars k3 d10 k3, PS)	-17%
CCCGCCTGAGCCCCGG (sugars k3 d10 k3, PS)	-2%
CTGGCATGCTGGTCTA (sugars k3 d10 k3, PS)	19%
CTTTCATAGAGCCTTC (sugars k3 d10 k3, PS)	43%
AACGAAGAGATACCTG (sugars k3 d10 k3, PS)	12%
TCTCGGGCTGCAGGCT (sugars k3 d10 k3, PS)	20%
TCTATTGCCATGTGCC (sugars k3 d10 k3, PS)	41%
CGCTTTGTTGTCTCTC (sugars k3 d10 k3, PS)	87% and 99%
CAGTAACATCTGATTC (sugars k3 d10 k3, PS)	57% and 78%
ATAGACCCCTGACTTT (sugars k3 d10 k3, PS)	34%
AAAAAGTAGTTCTTCG (sugars k3 d10 k3, PS)	16%
GTCTGAGGCAAACGAA (sugars k3 d10 k3, PS)	29%
TAATACCCTTCTGTTA (sugars k3 d10 k3, PS)	19%
AGAACTAGCACCTGCA (sugars k3 d10 k3, PS)	15%
GCAAATCGCCATGGAA (sugars k3 d10 k3, PS)	21%
CAGTAGTAAGAATCTC (sugars k3 d10 k3, PS)	54%
AATATCTTAGTAACCT (sugars k3 d10 k3, PS)	19%
ATATTTGCCCCTCCCC (sugars k3 d10 k3, PS)	27%
AAAGAGTAACTACCAG (sugars k3 d10 k3, PS)	22%

Sequence	target mRNA inhibition
AGATTGTAAGCATTTA (sugars k3 d10 k3, PS)	42%
AAATTTTTCTACCGTT (sugars k3 d10 k3, PS)	-3%
TGAAGAATACCATCTG (sugars k3 d10 k3, PS)	30%
GATTCATGAGTATAAG (sugars k3 d10 k3, PS)	50%
GCCATGGTTGATATTT (sugars k3 d10 k3, PS)	9%
GTAGGTATAGTTTACC (sugars k3 d10 k3, PS)	39%
TTAACAATTTGCAGGC (sugars k3 d10 k3, PS)	66% and 79%
CAGGAGTGCCAACCAC (sugars k3 d10 k3, PS)	-2%
CGCTTTTATTCTGCTT (sugars k3 d10 k3, PS)	6%
TACAACACCCGGAAAT (sugars k3 d10 k3, PS)	16%
TAAAGTGTGATAGTTC (sugars k3 d10 k3, PS)	14%
TTTTAAACGGGTCATC (sugars k3 d10 k3, PS)	17%
TTATCTAAATACCACC (sugars k3 d10 k3, PS)	2%
CTGAACTATCACAATT (sugars k3 d10 k3, PS)	28%
AAATCGCACTGGCTCC (sugars k3 d10 k3, PS)	6%
CCTGAAAAAGTCTTAG (sugars k3 d10 k3, PS)	28%
GAGAAATCGGAGCAGC (sugars k3 d10 k3, PS)	15%
ACACTTCTCTTGACCT (sugars k3 d10 k3, PS)	60% and 44% and 50%
GGGTTATGCTTATTCC (sugars k3 d10 k3, PS)	28%
TACACCTTGAGTCATT (sugars k3 d10 k3, PS)	38%
TAAGTTGGTAATTACT (sugars k3 d10 k3, PS)	17%
CATGAGTATAAGCCTG (sugars k3 d10 k3, PS)	50%
GTCTGATTATCCTGAT (sugars k3 d10 k3, PS)	33%

Sequence	target mRNA inhibition
ATTACTCTAATCACTG (sugars k3 d10 k3, PS)	28%
CAACAGCACAGCGGTA (sugars k3 d10 k3, PS)	-5%
TTTAAATGACGCAATT (sugars k3 d10 k3, PS)	15%
GTGGCAAAATGGCGGA (sugars k3 d10 k3, PS)	21%
TTCCACAGACCTCAAC (sugars k3 d10 k3, PS)	-4%
TGTGTTATGCCTGGTT (sugars k3 d10 k3, PS)	1%
GCACTTTTAAAGTCTG (sugars k3 d10 k3, PS)	74% and 91%
TCTAGACAGACCTAAG (sugars k3 d10 k3, PS)	-6%
TGCCAAGCCAAGCCGC (sugars k3 d10 k3, PS)	13%
AGCTGAACTATCACAA (sugars k3 d10 k3, PS)	5%
CCATTACGCAACTGAG (sugars k3 d10 k3, PS)	12%
GAAACCTACAACACCC (sugars k3 d10 k3, PS)	20%
AAGCGAGTTCAAGTGG (sugars k3 d10 k3, PS)	15%
GAACCGGAGCAGGAAG (sugars k3 d10 k3, PS)	28%
GCCAAGCCAAGCCGCC (sugars k3 d10 k3, PS)	14%
CTCTATACTTTGAAGG (sugars k3 d10 k3, PS)	20%
CTCCAATGGACATCTC (sugars k3 d10 k3, PS)	29%
CATAACTGATCTGACT (sugars k3 d10 k3, PS)	-5%
TAAGATAGCAGCACAA (sugars k3 d10 k3, PS)	-3%
CCTCTAAGAGACATTC (sugars k3 d10 k3, PS)	29%
TGTTATGTTCACCTGA (sugars k3 d10 k3, PS)	35%
TCATCAAACACTGGTT (sugars k3 d10 k3, PS)	36%
